Assay results from US20240262812A1, “N-SUBSTITUTED PHENYLSULFONAMIDE COMPOUND AND USE THEREOF” (Shanghai Leado Pharmatech Co., Ltd., priority 2021, published 2024).

Experiments:
[1] = tested on: DSS induced inflammatory colitis in C57BL/6 mice; test: DSS induced inflammatory colitis model in C57BL/6 mice; type: in vivo, mouse; conditions: 10 mg/kg oral once a day, day 0 to day 7; for DAI score: FIG. 3; for length of the colorectum / weight of the colorectum: FIG. 4; for level of colorectal inflammatory factor IL-10 (ELISA) / level of colorectal inflammatory factor TNF-α (ELISA): FIG. 5
Method: The therapeutic effect of compounds prepared in some examples of the present invention on DSS (dextran sulfate sodium) induced inflammatory colitis in C57BL/6 mice (corresponding to ulcerative colitis) was investigated.
• Animal species and strains: C57BL/6 mice • Administration record: No administration history • Gender and weight: Female, about 18-20 g • Breeding party/supplier: Shanghai SLAC Laboratory Animal Co., Ltd • Adaptation period: 7 days • Room: SPF Rooms • Indoor temperature: 20-26° C. • Indoor relative humidity: 40-70% • Lighting: Fluorescent lighting, 12-hour illumination (08:00-20:00) and 12 hour no illumination • Animal feeding: 2-5 mice per cage (same administration group) • Food: Unlimited access to feed (disinfected by irradiation, Shanghai SLAC Laboratory Animal Co., Ltd, China) • Water: Unlimited access to drinking water (tap water purified through ultra-pure water filtration system)
A total of 80 C57BL/6 mice were purchased from Shanghai SLAC Laboratory Animal Co., Ltd, of which 10 were used as backup animals to select animals with suitable weight range included in the groups. All backup animals are not subjected to any administration or modeling procedures and will be euthanized uniformly at the end of the experiment.
70 animals were selected on Day 3 and randomly grouped based on animal weight using BioBook software to ensure that the weight values of each group of animals were similar to reduce bias.
3.1 An appropriate amount of DSS powder was dissolved in high-pressure sterilized drinking water solvent and a 3% DSS solution was prepared.
3.2 Induction of Colitis: On day 3, 70 mice were randomly divided into 7 groups according to Table 7. From day 0 to day 4, mice in groups 2 to 7 drank 3% DSS aqueous solution for 5 days, followed by drank normal water ad libitum (from day 5 to before autopsy). The day of initial administration of DSS drinking water was counted as day 0. DSS aqueous solution was wrapped in opaque dark bags to ensure light avoidance. DSS aqueous solution was replaced every 2 days.
3.3. Dosage regimen: See Table 7.
Changes in body weight, feces, and bleeding of all groups of mice were record daily. Three items were scored according to Table 8 below, and the scores were added together to form the daily disease activity index (DAI) score.
After blood collection, the animals were euthanized by inhaling excessive CO2 and dislocation of cervical vertebra. Then the abdominal cavity was cut open and the colorectum was taken out. After removing the tissue around the colon, the longitudinal length from the ileocecal valve to the anus was measured. Afterwards, the colorectum was cut open and the contents of feces were scored. Finally, the intestinal contents were cleaned, and the entire colon was photographed and weighed.
Commercially available ELISA analysis kits were used to analyze the colorectal inflammation factors TNF-α and IL-10 in each group.
The health status of animals and their comprehensive response to DSS and drugs were observed every day. Any abnormal appearance or behavior other than those related to the development of the disease was recorded in detail in the Pharmalegacy Biological Experimental Observation Form.
The data was calculated as mean±standard error. Statistical analysis was performed using Graphpad Prism and SPSS software. The specific data is presented in the form of charts. When P<0.05, it is considered statistically significant.

[2] = tested on: acetic acid induced writhing in ICR mice; test: acetic acid induced writhing pain model in ICR mice; type: in vivo, mouse; conditions: for writhing frequency: 30 mg/kg single oral administration 1 h before 0.6% acetic acid i.p., 20 minutes observation, compared with G1 model group, FIG. 6; for efficacy compared with aspirin: 30 mg/kg single oral administration vs 200 mpk of aspirin
Description: The pharmacological effect of compounds prepared in some examples of the present invention on an acetic acid induced writhing pain model in ICR mice was investigated.
The acetic acid writhing pain model in mice is a classic pharmacological model for evaluating the treatment of drugs for visceral pain and inflammatory pain.
• Animal species and strains: ICR mice • Medical treatment history: None • Gender, age, and weight: Male, 8 weeks old, 20-25 g • Breeder/Supplier: Shanghai SLAC Laboratory Animal Co., Ltd • Adaptation period: no less than 7 days • Room: Regular level room • Room temperature: 19-26° C. • Relative humidity: 40-70% • Lighting cycle: fluorescent lighting, 12 hours of illumination (08:00-20:00) and 12 hours of no illumination • Animal feeding: 5 animals/cage divided by group • Food: Free intake (irradiated feed, Shanghai SLAC Laboratory Animal Co., Ltd, China) • Water: Free intake (Mol Ultrapure Water System filtered municipal tap water)
A total of 70 mice were introduced from Shanghai SLAC Laboratory Animal Co., Ltd. The animals were SPF grade and purchased at approximately 7 weeks old.
Animals are randomly assigned to each treatment group according to the weight using the BioBook randomization function to achieve an approximate average weight for each group and reduce inter group bias.
3.1 Within 12 hours before use, a glacial acetic acid solution with a mass volume fraction of 0.6% was prepared with 0.9% physiological saline.
3.2. Administration treatment: G1 group animals were orally administered 0.9% physiological saline; G2-G6 were specifically administered the compounds of the present invention referred to the specific dosage regimen in Table 9.
3.3. Modeling treatment: G1 group animals were administered 0.9% physiological saline by gavage, and after 1 hour, 0.6% glacial acetic acid was injected intraperitoneally to induce pain response (10 ml/kg). G2-G8 group animals were injected intraperitoneally with 0.6% glacial acetic acid to induce pain response (10 ml/kg) after different groups were administered according to the regimen designed in Table 9.
3.4 Measurement: The weight of all mice was recorded before modeling treatment. A torsion test was recorded immediately after acetic acid treatment. The behavioral observation period lasted for 20 minutes. Writhes were counted by a single preson (one standard writhe includes abdominal muscle contraction, muscle extension, and hind limb extension). After testing, the animals were euthanized with CO2.
3.5 Experimental observation: Animal health observation and general response to drug treatment were conducted daily. All abnormal health and behavioral behaviors were recorded.
The experimental data was calculated as mean±standard error. Statistical analysis was performed using Graphpad Prism, SPSS, or Sigmaplot software. The specific data is presented in the form of graphs. P<0.05 is considered to have statistical differences.

Structure (SMILES): CNCc1ccc(NS(=O)(=O)c2ccsc2)c(-c2ccco2)c1 [IA-30]
- DAI score [1]: significantly reduce
- length of the colorectum [1]: increase
- weight of the colorectum [1]: decrease
- level of colorectal inflammatory factor IL-10 (ELISA) [1]: significantly reduce
- level of colorectal inflammatory factor TNF-α (ELISA) [1]: significantly reduce
- writhing frequency [2]: significantly reduce
- efficacy compared with aspirin [2]: basically equivalent to that of 200 mpk of aspirin

Structure (SMILES): CNCc1ccc(-c2nccs2)c(NS(=O)(=O)c2ccccc2)c1 [IA-51, N-(5-((methylamino)methyl)-2-(thiazol-2-yl)phenyl)benzenesulfonamide]
- DAI score [1]: significantly reduce
- length of the colorectum [1]: increase
- weight of the colorectum [1]: decrease
- level of colorectal inflammatory factor IL-10 (ELISA) [1]: significantly reduce
- level of colorectal inflammatory factor TNF-α (ELISA) [1]: significantly reduce
- writhing frequency [2]: significantly reduce
- efficacy compared with aspirin [2]: basically equivalent to that of 200 mpk of aspirin

Structure (SMILES): CNCc1ccc(-c2cc[nH]n2)c(NS(=O)(=O)c2ccccc2)c1 [IA-55, N-(5-((methylamino)methyl)-2-(1H-pyrazol-3-yl)phenyl)benzenesulfonamide]
- DAI score [1]: significantly reduce
- length of the colorectum [1]: increase
- weight of the colorectum [1]: decrease
- level of colorectal inflammatory factor IL-10 (ELISA) [1]: significantly reduce
- level of colorectal inflammatory factor TNF-α (ELISA) [1]: significantly reduce
- writhing frequency [2]: significantly reduce
- efficacy compared with aspirin [2]: basically equivalent to that of 200 mpk of aspirin

Structure (SMILES): NCc1ccc(NS(=O)(=O)c2ccsc2)c(-c2ccco2)c1 [ID-5]
- DAI score [1]: significantly reduce
- length of the colorectum [1]: increase
- weight of the colorectum [1]: decrease
- level of colorectal inflammatory factor IL-10 (ELISA) [1]: significantly reduce
- level of colorectal inflammatory factor TNF-α (ELISA) [1]: significantly reduce
- writhing frequency [2]: significantly reduce
- efficacy compared with aspirin [2]: basically equivalent to that of 200 mpk of aspirin
